Converted amounts (≈) assume the structure as drawn. Where a name gives a salt, the structure may show the parent alone.
Key:
[1] = system: Mycobacterium smegmatis (ATCC607); assay: In-vitro anti-bacterial activity against strain M. Smegmatis ATCC607; format: cell-based; conditions: 90% inhibitory concentration for bacterial growth, Alamar Blue fluorescence; for IC90: Mycolicibacterium smegmatis, ATCC607, 48 h, read-out: IC90 MSM 607; for IC90 MSM 607: 48 hours
Summary of the method: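 Serial five-fold compound dilutions in BSA-supplemented wells, inoculated with ~250 CFU/well in Mueller-Hinton broth, incubated 48 h at 37 °C, 5% CO2. Growth read by Alamar Blue fluorescence (ex 530/em 590 nm); IC90 in μg/ml.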

[2] = system: Staphylococcus aureus (ATCC29213); assay: In-vitro anti-bacterial activity, microtitre plate assay, IC90 determination (non-mycobacterial strains); format: cell-based; conditions: 90% inhibitory concentration for bacterial growth, resazurin fluorescence; for IC90: Staphylococcus aureus, ATCC29213, 24 h, read-out: IC90 STA B29213; for IC90 STA B29213: 24 hours
Summary of the method: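 Inoculum of about 100 TCID50 (10–60 CFU/well) in Mueller-Hinton broth, serial five-fold compound dilutions, 24 h at 37 °C in air. Growth read by resazurin fluorescence (ex 530/em 590 nm); IC90 in μg/ml as 90% growth inhibition.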

COc1nc2ccc(F)cc2cc1C(c1ccc(S(C)(=O)=O)cc1)C1(O)CCNC(c2ccc(F)cc2C)C1 (centres unmarked) [Compound 417]
melting point: 150 °C
IC90 [1]: > 13.9 µg/mL
IC90 [2]: > 13.9 µg/mL

COc1nc2ccc(S(C)(=O)=O)cc2cc1C(c1ccc(Cl)cc1)C1(O)CCNC(c2ccc3ccccc3c2)C1 (centres unmarked) [Compound 460]
melting point: 197 °C
IC90 MSM 607 [1]: 1.86 µg/mL (≈ 3.17 µM)
IC90 STA B29213 [2]: 3.70 µg/mL (≈ 6.3 µM)

COc1nc2ccc(Cl)cc2cc1C(c1ccc(Cl)cc1)C1(O)CCN(C(C)c2ccccc2)C(CO)C1 (centres unmarked) [Compound 9]
melting point: 182 °C
IC90 [1]: 3.48 µg/mL (≈ 6.31 µM)
IC90 [2]: 4.92 µg/mL (≈ 8.92 µM)

COc1nc2ccc(Br)cc2cc1C(c1ccccc1)C1(O)CCNCC1C (centres unmarked) [Compound 426]
melting point: 174 °C
IC90 MSM 607 [1]: >11.09 µg/mL
IC90 STA B29213 [2]: >11.09 µg/mL

COc1nc2ccc(S(C)(=O)=O)cc2cc1C(c1ccccc1)C1(O)CCNC(c2ccc(F)cc2C)C1 (centres unmarked) [Compound 184]
melting point: 172 °C
IC90 [1]: 13.4 µg/mL (≈ 25.1 µM)
IC90 [2]: 13.4 µg/mL (≈ 25.1 µM)

COc1nc2ccc(Br)cc2cc1C(c1ccc(Cl)cc1)C1(O)CCNC(CC2CCCCC2)C1 (centres unmarked) [Compound 256]
melting point: 118 °C
IC90 MSM 607 [1]: 2.22 µg/mL (≈ 3.98 µM)
IC90 STA B29213 [2]: 2.49 µg/mL (≈ 4.46 µM)

COc1nc2ccc(S(C)(=O)=O)cc2cc1C(c1ccccc1)C1(O)CCNC(c2ccc(F)cc2C)C1 (centres unmarked) [Compound 252]
melting point: 152 °C
IC90 MSM 607 [1]: >13.43 µg/mL
IC90 STA B29213 [2]: >13.43 µg/mL

COc1nc2ccc(F)cc2cc1C(c1ccc(Cl)cc1)C1(O)CCNC(Cc2ccccc2)C1 (centres unmarked) [Compound 53]
melting point: 102 °C
IC90 MSM 607 [1]: 2.46 µg/mL (≈ 5.01 µM)
IC90 STA B29213 [2]: 1.55 µg/mL (≈ 3.16 µM)

COc1nc2ccc(Cl)cc2cc1C(c1ccc(Cl)cc1)C1(O)CCNCC1F (centres unmarked) [Compound 450]
melting point: 200 °C
IC90 MSM 607 [1]: 4.35 µg/mL (≈ 9.99 µM)
IC90 STA B29213 [2]: 8.69 µg/mL (≈ 20 µM)

COc1nc2ccc(S(C)(=O)=O)cc2cc1C(c1cccc(Cl)c1)C1(O)CCNC(c2ccc(F)cc2C)C1 (centres unmarked) [Compound 44]
melting point: 148 °C
IC90 MSM 607 [1]: 3.59 µg/mL (≈ 6.31 µM)
IC90 STA B29213 [2]: 7.16 µg/mL (≈ 12.6 µM)

CN1CCC(O)(C(c2ccc(Cl)cc2)c2cc3cc(Br)ccc3[nH]c2=O)CC1Cc1ccccc1 (centres unmarked) [Compound 84]
melting point: 238 °C
IC90 [1]: 5.52 µg/mL (≈ 10 µM)
IC90 [2]: 6.95 µg/mL (≈ 12.6 µM)

COc1nc2ccc(S(C)(=O)=O)cc2cc1C(c1ccc(Cl)cc1)C1(O)CCNC(c2ccc3ccccc3c2)C1 (centres unmarked) [Compound 464]
melting point: 154 °C
IC90 MSM 607 [1]: 1.17 µg/mL (≈ 1.99 µM)
IC90 STA B29213 [2]: 1.47 µg/mL (≈ 2.5 µM)

COc1nc2ccc(Br)cc2cc1C(c1ccccc1)C1(O)CCNC(c2ccc(F)cc2C)C1 (centres unmarked) [Compound 250]
melting point: 125 °C
IC90 MSM 607 [1]: 1.35 µg/mL (≈ 2.52 µM)
IC90 STA B29213 [2]: 1.69 µg/mL (≈ 3.16 µM)

COc1nc2ccc(S(C)(=O)=O)cc2cc1C(c1ccc(Cl)cc1)C1(O)CCNCC1Cc1cccc(F)c1 (centres unmarked) [Compound 291]
melting point: 150 °C
IC90 MSM 607 [1]: 7.16 µg/mL (≈ 12.6 µM)
IC90 [2]: 7.16 µg/mL (≈ 12.6 µM)

COc1nc2ccc(Cl)cc2cc1C(c1ccc(Cl)cc1)C1(O)CCNC(Cc2ccccc2)C1 (centres unmarked) [Compound 96]
melting point: 114 °C
IC90 [1]: 1.01 µg/mL (≈ 1.99 µM)
IC90 STA B29213 [2]: 1.60 µg/mL (≈ 3.15 µM)

COc1nc2ccc(F)cc2cc1C(c1ccc(Cl)cc1)C1(O)CCN(C(C)c2ccccc2)C(CO)C1 (centres unmarked) [Compound 13]
melting point: 162 °C
IC90 [1]: 4.77 µg/mL (≈ 8.91 µM)
IC90 [2]: 8.48 µg/mL (≈ 15.8 µM)

O=c1[nH]c2ccc(Br)cc2cc1C(c1ccc(Cl)cc1)C1(O)CCNC(Cc2ccccc2)C1 (centres unmarked) [Compound 81]
melting point: 233 °C
IC90 [2]: 8.52 µg/mL (≈ 15.8 µM)

COc1nc2ccc(SC)cc2cc1C(c1ccccc1)C1(O)CCNC(c2ccc(F)cc2C)C1 (centres unmarked) [Compound 198]
melting point: 187 °C
IC90 MSM 607 [1]: 3.17 µg/mL (≈ 6.31 µM)
IC90 STA B29213 [2]: 3.17 µg/mL (≈ 6.31 µM)

C=CCC1CNCCC1(O)C(c1cccc(Cl)c1)c1cc2cc(Cl)ccc2nc1OC (centres unmarked) [Compound 395]
melting point: 150 to 152 °C
IC90 MSM 607 [1]: 2.89 µg/mL (≈ 6.32 µM)
IC90 STA B29213 [2]: 5.76 µg/mL (≈ 12.6 µM)

COc1nc2ccc(F)cc2cc1C(c1ccccc1)C1(O)CCNC(CO)C1 (centres unmarked) [Compound 29]
melting point: 135 °C
IC90 [2]: > 9.96 µg/mL

COc1nc2ccc(S(=O)(=O)C(C)C)cc2cc1C(c1ccc(Cl)cc1)C1(O)CCNC(Cc2ccccc2)C1 (centres unmarked) [Compound 386]
melting point: 125 °C
IC90 MSM 607 [1]: 2.90 µg/mL (≈ 5.01 µM)
IC90 STA B29213 [2]: 3.65 µg/mL (≈ 6.3 µM)

COc1nc2ccc(F)cc2cc1C(c1ccc(Cl)cc1)C1(O)CCN(C(C)c2ccccc2)C(CO)C1 (centres unmarked) [Compound 436]
melting point: 135 °C
IC90 [2]: 13.4 µg/mL (≈ 25.1 µM)

COc1nc2ccc(Br)cc2cc1C(c1ccc(Cl)cc1)C1(O)CCNC(Cc2ccccc2)C1 (centres unmarked) [Compound 70]
melting point: 112 °C
IC90 STA B29213 [2]: 4.38 µg/mL (≈ 7.94 µM)

O=c1[nH]c2ccc(Cl)cc2cc1C(c1ccc(Cl)cc1)C1(O)CCNC(CO)C1 (centres unmarked) [Compound 20]
melting point: 232 °C
IC90 [2]: > 10.9 µg/mL

COc1nc2ccc(Cl)cc2cc1C(c1ccc(Cl)cc1)C1(O)CCNCC1c1cccnc1 (centres unmarked) [Compound 443]
melting point: 156 °C
IC90 STA B29213 [2]: 4.41 µg/mL (≈ 8.92 µM)

COc1nc2ccc(Cl)cc2cc1C(c1ccc(Cl)cc1)C1(O)CCNCC1Cc1ccccn1 (centres unmarked) [Compound 438]
melting point: 188 °C
IC90 STA B29213 [2]: 3.21 µg/mL (≈ 6.31 µM)

COc1nc2ccc(Cl)cc2cc1C(c1ccc(Cl)cc1)C1(O)CCNCC1c1cccnc1 (centres unmarked) [Compound 444]
melting point: 172 °C
IC90 STA B29213 [2]: 12.42 µg/mL (≈ 25.1 µM)

COc1nc2ccc(Cl)cc2cc1C(c1ccc(Cl)cc1)C1(O)CCNCC1Cc1ccccn1 (centres unmarked) [Compound 439]
melting point: 132 °C
IC90 STA B29213 [2]: 12.77 µg/mL (≈ 25.1 µM)

COc1nc2ccc(Cl)cc2cc1C(c1ccc(Cl)cc1)C1(O)CCNCC1c1cccnc1 (centres unmarked) [Compound 445]
melting point: 154 °C
IC90 STA B29213 [2]: 3.50 µg/mL (≈ 7.08 µM)

COc1nc2ccc(SC)cc2cc1C(c1cccc(Cl)c1)C1(O)CCNC(c2ccc(F)cc2C)C1 (centres unmarked) (as salt: fumarate) [Compound 165]
melting point: 168 °C

COc1nc2ccccc2cc1C(c1ccccc1)C1(O)CCNC(c2ccccc2)C1 (centres unmarked) (as salt: fumarate) [Compound 415]
melting point: 160 °C

COc1nc2ccc(Br)cc2cc1C(c1cccc(Cl)c1)C1(O)CCNC(c2ccc(F)cc2C)C1 (centres unmarked) (as salt: fumarate) [Compound 149]
melting point: 178 °C

COc1nc2ccc(Br)cc2cc1C(c1ccc(Cl)cc1)C1(O)CCNC(Cc2ccccc2)C1 (centres unmarked) [Compound 71]
melting point: 138 °C
IC90 STA B29213 [2]: 4.38 µg/mL (≈ 7.94 µM)

O=c1[nH]c2ccc(Br)cc2cc1C(c1ccc(Cl)cc1)C1(O)CCNC(Cc2ccc(F)c(F)c2)C1 (centres unmarked) (as salt: hydrochloride) [Compound 40]
melting point: 224 °C

CS(=O)(=O)c1ccc2[nH]c(=O)c(C(c3cccc(Cl)c3)C3(O)CCNC(Cc4ccc(F)cc4F)C3)cc2c1 (centres unmarked) (as salt: hydrochloride) [Compound 308]
melting point: > 260 °C

O=c1[nH]c2ccc(Br)cc2cc1C(c1ccc(Cl)cc1)C1(O)CCNC(Cc2ccc(F)cc2)C1 (centres unmarked) (as salt: hydrochloride) [Compound 341]
melting point: > 260 °C

COc1nc2ccc(SC)cc2cc1C(c1ccc(Cl)cc1)C1(O)CCNCC1Cc1cccc(F)c1 (centres unmarked) (as salt: fumarate) [Compound 286]
melting point: 177 °C

COc1nc2ccc(SC)cc2cc1C(c1ccc(Cl)cc1)C1(O)CCNC(Cc2ccccc2)C1 (centres unmarked) (as salt: fumarate) [Compound 93]
melting point: > 250 °C

CS(=O)(=O)c1ccc2[nH]c(=O)c(C(c3ccc(Cl)cc3)C3(O)CCNC(Cc4ccc(F)c(F)c4)C3)cc2c1 (centres unmarked) (as salt: hydrochloride) [Compound 212]
melting point: > 250 °C

CS(=O)(=O)c1ccc2[nH]c(=O)c(C(c3ccc(Cl)cc3)C3(O)CCNC(Cc4ccc(F)c(F)c4)C3)cc2c1 (centres unmarked) (as salt: fumarate) [Compound 214]
melting point: 213 °C

COc1nc2ccccc2cc1C(c1ccccc1)C1(O)CCNC(c2ccccc2)C1 (centres unmarked) (as salt: fumarate) [Compound 413]
melting point: > 250 °C

COc1nc2ccc(Br)cc2cc1C(c1ccc(Cl)cc1)C1(O)CCNC(Cc2ccc(F)cc2F)C1 (centres unmarked) (as salt: trifluoroacetate) [Compound 51]
melting point: 176 °C

COc1nc2ccccc2cc1C(c1ccc(Cl)cc1)C1(O)CCNC(Cc2ccc(F)c(F)c2)C1 (centres unmarked) (as salt: fumarate) [Compound 139]
melting point: 130 °C

COc1nc2ccc(SC)cc2cc1C(c1ccccc1)C1(O)CCNC(Cc2ccccc2)C1 (centres unmarked) (as salt: fumarate) [Compound 141]
melting point: 155 °C

COc1nc2ccccc2cc1C(c1ccccc1)C1(O)CCNC(Cc2ccccc2)C1 (centres unmarked) (as salt: fumarate) [Compound 400]
melting point: 157 °C

COc1nc2ccccc2cc1C(c1ccccc1)C1(O)CCNC(c2ccccc2)C1 (centres unmarked) (as salt: fumarate) [Compound 414]
melting point: 196 °C

COc1nc2ccc(Cl)cc2cc1C(c1ccc(Cl)cc1)C1(O)CCNCC1c1ccccc1 (centres unmarked) (as salt: fumarate) [Compound 412]
melting point: 166 °C

CS(=O)(=O)c1ccc2[nH]c(=O)c(C(c3ccc(Cl)cc3)C3(O)CCNC(Cc4ccccc4)C3)cc2c1 (centres unmarked) (as salt: fumarate) [Compound 119]
melting point: 215 °C

COc1nc2ccc(F)cc2cc1C(c1ccc(S(C)(=O)=O)cc1)C1(O)CCNC(c2ccc(F)cc2C)C1 (centres unmarked) (as salt: fumarate) [Compound 418]
melting point: 164 to 166 °C

Source: patent US9617244B2, “Antibacterial quinoline derivatives” (JANSSEN PHARMACEUTICA NV, priority 2012, dated 2017)
